The values that follow are results of earlier work, collected in patent US20050042280A1, “Aqueous based pharmaceutical formulations of water-soluble prodrugs of propofol” (priority 2001, published 2005).

For this series the following is noted: anesthetic induction doses, Bryson et al., Drugs 50 (1995) at 520.

Turning to `CC(C)c1cccc(C(C)C)c1O` [propofol, 2,6-diisopropylphenol], the “patients with respiratory consequences, including a reduction in tidal volume and apnea” value is reported as “up to 83%”.
